From patent US10124012B2, “Method for treatment of hyperglycemia and hyperlipidemia” (priority 2016, dated 2018) come the findings set out here.

The test system of assay [1] is high-fat diet-fed C57BL/6J mouse. Description: Body weight, tissue weights and food intake in HFD-fed mice. The format is in vivo, C57BL/6J mice. The conditions noted are these: HF + Feno: fenofibrate 250 mg/kg/day oral gavage 4 weeks. From the text:
(§1) The 4-week old male C57BL/6J mice (total amount n=63) were obtained from the National Laboratory Animal Center (Taipei, Taiwan). After acclimatization for one week, all of the mice were randomly assigned into a control (CON) group and a high-fat diet (HFD) group. […] After HFD feeding for 8 weeks, the HFD group was randomly subdivided into six groups (n=9 per group) receiving different treatments and fed on HFD. […] The HF+AnK1, HF+AnK2, and HF+AnK3 groups are collectively termed AnK-treated HFD groups in the following examples. The CON mice were administered vehicle. All treatments were administered via oral gavage once daily. After administration for 4 weeks, all mice were fasted 12 hours, and blood was collected from the retro-orbital sinus under ether anesthesia. At the end of the experiment, the mice were sacrificed via carbon dioxide inhalation. Liver, adipose tissue, and skeletal muscle were collected and immediately stored at −80° C. for target gene analysis.
The metabolic parameters, including body weight, weight gain, and food intake, were performed as the following. Body weight was daily measured at the same time throughout the study. Body weight gain is considered as the weight difference between two consecutive days. The amount of pellet food was weighted, followed by weighting the amount of remaining food after 24 hours. The difference between the two weights is defined as daily food intake.

Assay [2] deals with membrane GLUT4. Description: Western blotting of skeletal muscular membrane GLUT4 in HFD-fed mice. In kind it is in vivo, C57BL/6J mice. The conditions noted are these: skeletal muscle, AnK 10, 20, 40, Feno 250, Metf 300 mg/kg/day, as compared with the HF group.
From the text: as §1
About 0.1 g of liver tissue, skeletal muscle, or adipose tissue was used for the homogenate samples. Samples were powdered under liquid nitrogen and homogenized for 20 seconds in 500 μL buffer containing 20 mM Tris-HCl (pH 7.4 at 4° C.), 2% SDS, 5 mM EDTA, 5 mM EGTA, 1 mM dithiothreitol (DTT), 100 mM NaF, 2 mM sodium vanadate, 0.5 mM phenylmethylsulfonyl fluoride, 10 μg/mL leupeptin, and 10 μL/mL pepstatin. The total membrane fraction was used for measurement. The protein concentration in supernatant was determined with a BCA protein assay kit (Thermo Scientific, Rockford, Ill., USA). […] The membrane was blocked with 5% slim milk in Tris-buffered saline (TBS)(Amersham BioSciences, Uppsala, Sweden) containing 0.05% Tween-20 (Bio Rad, CA, USA) and incubated overnight at 4° C. with antibodies at 1:200 dilution. […] Immunoreactive bands were detected with ECL reagent kit (GE Healthcare BioSciences, Buckinghamshire, UK). The intensity of Western blot signals was analyzed using AlphaEase FC software (Alpha Innotech Corporation, Randburg, South Africa). […]
In general terms: In western blotting, separated proteins are transferred to a membrane and probed.

Assay [3] deals with high-fat diet-fed C57BL/6J mouse. Description: Histopathology of epididymal white adipose tissue (adipocyte hypertrophy). In kind it is in vivo, C57BL/6J mice. The conditions noted are these: mean area of epididymal adipocyte; HF + Feno: fenofibrate 250 mg/kg/day oral gavage 4 weeks, HFD-fed mice. How it is done: (§2) Animal studies were performed and approved under the guidelines of the Institutional Animal Care and Use Committee in Taiwan (12 Mar. 2015). The 4-week old male C57BL/6J mice (total amount n=63) were obtained from the National Laboratory Animal Center (Taipei, Taiwan). After acclimatization for one week, all of the mice were randomly assigned into a control (CON) group and a high-fat diet (HFD) group. For the following 12 weeks, the CON group (n=9) received a control diet or a low-fat diet (Diet 12450B, Research Diets, Inc., New Brunswick, N.J., USA), while the HFD group (n=54) received a high-fat diet (Diet 12451, Research Diets, New Brunswick, N.J., USA). The low-fat diet was composed of protein 20%, carbohydrate 70% and fat 10%, whereas the high-fat diet was composed of protein 20%, carbohydrate 35%, and fat 45% (of total energy, % kcal). After HFD feeding for 8 weeks, the HFD group was randomly subdivided into six groups (n=9 per group) receiving different treatments and fed on HFD. […] The HF+AnK1, HF+AnK2, and HF+AnK3 groups are collectively termed AnK-treated HFD groups in the following examples. The CON mice were administered vehicle. All treatments were administered via oral gavage once daily. After administration for 4 weeks, all mice were fasted 12 hours, and blood was collected from the retro-orbital sinus under ether anesthesia. At the end of the experiment, the mice were sacrificed via carbon dioxide inhalation. Liver, adipose tissue, and skeletal muscle were collected and immediately stored at −80° C. for target gene analysis.
(§3) Parts of visceral adipose and liver specimens were fixed with formalin (200 g/kg) neutral buffered solution and embedded in paraffin. A series of 8 μm-thick sections was cut and stained with hematoxylin and eosin. For microscopic examination, a microscope (Olympus BX51, Olympus, Tokyo, Japan) was used and the images were photographed.
Adipocyte hypertrophy, the pathological enlargement of adipocytes, is often found in subjects with type 2 diabetes and hyperlipidemia. To verify the therapeutic effect of AnK on adipocyte hypertrophy, morphology of the epididymal white adipose tissue from mice of the HF group and the AnK-treated HFD groups was examined. Micrographs (magnification 200X) of the EWAT sections for each group were shown in FIG. 4 and analyzed to determine the mean area of an epididymal adipocyte.

The test system is the same in assay [4]. Description: Hepatic lipids in HFD-fed mice. In kind it is in vivo, C57BL/6J mice. Particulars: HF + Feno: fenofibrate 250 mg/kg/day oral gavage 4 weeks. How it is done: as §2, with “The 4-week old male C57BL/6J mice (total amount n=63) were obtained from the National Laboratory Animal Center (Taipei, Taiwan).” left out, “The low-fat diet was composed of protein 20%, carbohydrate 70% and fat 10%, whereas the high-fat diet was composed of protein 20%, carbohydrate 35%, and fat 45% (of total energy, % kcal).” left out

Assay [5] shares this test system. Description: Histopathology of liver (hepatocellular ballooning). In kind it is in vivo, C57BL/6J mice. The conditions noted are these: grade 0 absence, 1 few cells, 2 many cells (Table 4); HF + Feno: fenofibrate 250 mg/kg/day oral gavage 4 weeks, HFD-fed mice. How it is done: as §2, §3
On the basis of previous study, the degree of hepatocellular ballooning is defined in TABLE 4: […]

Assay [6] deals with phospho-AMPK (Thr^172)/total-AMPK. Description: AMPK phosphorylation in C2C12 cells (Western blotting). In kind it is cell-based. The conditions noted are these: AnK 1, 5, 10 and 25 μg/mL 30 min, insulin 100 nM 25 min, vs CON group. On the procedure:
(§4) For the in vitro assay, C2C12 skeletal myoblasts (ATCC CRL-1772) were cultured at 37° C. in Dulbecco's modified Eagle's medium (DMEM; Gibco BRL) supplemented with 10% fetal bovine serum (FBS; Hyclone) and 100 U/ml penicillin and 100 μg/ml streptomycin (Gibco BRL), and split 1:4 using 0.05% trypsin at 80% confluency. Myoblasts were diluted and placed in a 9 cm dish. Cells were cultured to achieve 80-90% confluency and refreshed with […] (2% FBS/DMEM) every 24 hours for 5-7 days. The term “confluency” refers to the proportion of the surface of a culture dish that is covered by adherent cells growing in the dish. 100% confluency refers to complete coverage of the surface by the cells.
(§5) Differentiated C2C12 cells were serum-starved in DMEM/BSA at 37° C. for 2 hours prior to incubation with AnK (at 1, 5, 10, and 25 μg/mL) or vehicle (0.2% dimethyl sulfoxide (DMSO) in saline) for 30 min or with 100 nM insulin for 25 min.
(§6) The abovementioned C2C12 cells were then washed three times with phosphate buffered saline (PBS) and divided into two groups. […]
(§7) Protein concentrations were determined via BCA assay (Pierce). […]
(§8) SDS polyacrylamide gel electrophoresis (SDS-PAGE) and Western blotting. Proteins were detected with antibodies specific for GLUT4, Akt, phospho-Akt (Ser^473), AMPK, and phospho-AMPK (Thr^172).

Assay [7] relates to membrane GLUT4. Description: Membrane GLUT4 expression in C2C12 cells (Western blotting). In kind it is cell-based. The conditions noted are these: AnK 1, 5, 10 and 25 μg/mL 30 min, insulin 100 nM 25 min, vs CON group. How it is done:
as §4, §5
The C2C12 cells of the other group were homogenized in a homogenization buffer having a pH value of about 7.4 and containing 250 mM sucrose, 50 mM Tris, and 0.2 mM edetic acid (EDTA). […]
as §7, §8

Assay [8] deals with phospho-Akt (Ser^473)/total-Akt. Description: Akt phosphorylation in C2C12 cells (Western blotting). In kind it is cell-based. The conditions noted are these: AnK 1, 5, 10 and 25 μg/mL 30 min, insulin 100 nM 25 min, vs CON group. On the procedure: as §4, §5, §6, §7, §8

For the compound `CC(C)OC(=O)C(C)(C)Oc1ccc(C(=O)c2ccc(Cl)cc2)cc1` [Feno, fenofibrate, reference compound], in assay [1], the “Absolute tissue weight BAT” value was 0.157 ± 0.013 g, the “Absolute tissue weight EWAT” value was 0.603 ± 0.041 g, the “Absolute tissue weight Liver” value stood at 1.700 ± 0.070 g and the “Absolute tissue weight MWAT” value turned out to be 0.247 ± 0.025 g. In assay [1], the “Absolute tissue weight RWAT” value is reported as 0.181 ± 0.020 g, the “Absolute tissue weight Skeletal muscle” value came out at 0.428 ± 0.026 g, the “Absolute tissue weight Spleen” value worked out at 0.084 ± 0.005 g and the Final body weight is recorded as 27.55 ± 0.84 g. Further, in assay [1], the Weight gain amounted to 0.57 ± 0.55 g. In addition, in assay [1] (sum of EWAT and RWAT), the “Absolute tissue weight Visceral fat” value came out at 0.784 ± 0.052 g. The “increase of membrane GLUT4 levels” value in assay [2] came out at 1.98 fold. In addition, the Adipocyte size in assay [3] is reported as 6304.2 ± 316.9 μm^2. In addition, in assay [4], the “Liver lipids total lipid” value came to 64.9 ± 5.1 mg/g and the Liver lipids triacylglycerol is 47.3 ± 4.6 µmol/g. The “Hepatocellular ballooning Mean score” value in assay [5] worked out at 0.5 ± 0.1.

In the case of insulin [reference compound], in assay [6], the “expression ratio of phospho-AMPK (p-AMPK) to total-AMPK (t-AMPK)” value was “higher”. Besides, in assay [7], the “protein expression of membrane GLUT4” value was “enhanced”. The “expression ratio of phospho-Akt (p-Akt) to total-Akt (t-Akt)” value in assay [8] was “higher”.
